Data taken from US11573241B2, “Total cellular iron as a marker of cancer stem cells and uses thereof” (Institut National de la Sante et de la Recherche Medicale …, priority 2016, dated 2023).

Key:
[1] = system: iCSCA2 cells; assay: Immunoblotting of iron homeostasis regulatory proteins; assay type: cell-based
Procedure: Immunoblotting. Cells were treated as indicated, then washed twice with PBS and lysed with 2× Laemmli buffer. Cell extracts were heated at 95° C. for 5 min, sheared through a 26-gauge needle and quantified with a Nanodrop 2000 (Thermo Scientific). Protein lysates (˜100 μg) were resolved by SDS-PAGE electrophoresis and transferred onto PVDF membranes (Amersham). Membranes were blocked with 5% BSA, 0.1% Tween-20/TBS for 1 h. The blots were then probed with the relevant primary antibodies in 5% BSA, 0.1% Tween-20/TBS at 4° C. overnight with gentle agitation. Membranes were washed with 0.1% Tween-20/TBS for 30 min and were incubated with secondary antibodies for 1 h at RT. Antigens were detected by ECL (Amersham). Imaging was performed using a ChemiDoc™ XRS+ System (Biorad).

[2] = assay type: physicochemical
From the text: FIG. 1. Salinomycin and AM5 sequester iron in lysosomes and trigger ferritin degradation. a, Chemical strategy to visualize small molecules in cells. b, Fluorescence microscopy images of U2OS cells showing the subcellular localization of labeled Sal derivatives AM4, AM5, and AM9. Lysotracker Deep Red stains the lysosomes and 4′,6-diamidino-2-phenylindole (DAPI) stains nuclear DNA. Scale bar, 10 μm. Zoom corresponds to ×6. c, Live cell fluorescence microscopy images showing the subcellular localization of iron(II) using the fluorogenic reduction of RhoNox-1 (green) in HMLER CD24^low cells treated with Sal or AM5 or AM9 (0.5 μM) for 48 h. Lysotracker deep red stains the lysosomes (red) and DAPI stains nuclear DNA (blue). Scale bar, 10 μm. d, Fixed cell fluorescence microscopy images showing the subcellular localization of iron(II) using the fluorogenic reduction of RhoNox-1 (green) in HMLER CD24^low cells treated with Sal or AM5 or AM9 (0.5 μM) for 48 h. e, Quantification of lysotracker-positive vesicles colocalizing with RhoNox-1 in fixed cells was carried out by means of visual inspection. At least 75 cells were counted per condition. Data represent three independent biological replicates (n=number of lysotracker vesicles). […] Spectra were recorded in CD3CN. […] For k and I, Samples prepared in CD3OD, spectra recorded at 298 K, 5 min following sample preparation (600 MHz). […]

[3] = system: HMLER CD24^low cells; assay: Localization of intracellular iron(II) with RhoNox-1; assay type: cell-based, human; details: 0.5 μM, 48 h; for lysotracker-positive vesicles colocalized with the RhoNox-1 probe: fixed cells
Procedure: Localization of intracellular iron(II). RhoNox-1 was synthesized according to the original procedure described in […]. Cells were washed with 1× Hank's Balanced Salt Solution (HBSS, 14025-092, Life technologies) three times, then incubated with 5 μM of RhoNox-1/HBSS for 1 h at 37° C., 5% CO2 and washed with HBSS. Co-staining was performed by adding 100 nM LysoTracker Deep Red and Hoechst 33342 (H1399, Sigma, final concentration of 1 μg/mL) in HBSS. Experiments were performed with a 60×APO TIRF oil immersion objective of Nipkow Spinning Disk confocal system.

[4] = system: HMLER CD24^low and iCSCL-10A2 cells; assay: Lipid ROS measurements (Bodipy-C11); assay type: cell-based; details: 0.5 μM, 48 h
Procedure: Lipid ROS measurements. Cells were treated with Sal or AM5 (0.5 μM) as indicated. Then, cells were trypsinized and washed with PBS. Subsequently, cells were incubated with Bodipy-C11® (D3861, Thermo Fisher Scientific, 2 μM) at 37° C. for 60 min. Next, cells were washed twice with PBS. […] The data were processed using Cell Quest software (BD Biosciences) and FlowJo software (FLOWJO, LLC). For cell imaging, cells were treated as indicated in the main figure (Bodipy-C11®, 1 μM, 1 h), then fixed with formaldehyde (2% in PBS, 12 min) and analyzed by fluorescence microscopy (ex. 488 nm).

[5] = system: U2OS, HMLER CD24^low, and iCSCL-10A2 cells; assay: Lysosomal ROS in cells; assay type: cell-based; details: all cell lines
[6] = system: HMLER CD24^low cells; assay: Immunoblotting of iron homeostasis regulatory proteins; assay type: cell-based, human; details: for level of autophagy marker protein LC3-II: 24 h; for levels of IRP2, TfR and ferritin: immunoblotting
[7] = system: HMLER CD24^low and iCSCL-10A2 cells; assay: Intracellular GSH level quantification; assay type: cell-based; details: 0.5 μM
Procedure: Intracellular GSH level quantification. Cells were treated with Sal or AM5 (0.5 μM) as indicated, then harvested and counted. The intracellular GSH level was measured using a commercial kit (ab205811, Abcam) according to the manufacturer's protocol.

Structure (SMILES)	levels of IRP2, TfR and ferritin [1]	stability in the presence of iron(II) over time [2]	staining of iron(II) (subcellular localization) [3]	lysotracker-positive vesicles colocalized with the RhoNox-1 probe [3]	lipid ROS (Bodipy-C11 staining) [4]	lysosomal ROS [5]	level of autophagy marker protein LC3-II [6]	levels of IRP2, TfR and ferritin [6]	endogenous levels of GSH [7]
C#CCN[C@@H]1C=C[C@]2(O[C@H]([C@@H](CC)C(=O)[C@@H](C)[C@@H](O)[C@H](C)C3O[C@@H](C(CC)C(=O)O)CC[C@@H]3C)[C@@H](C)C[C@H]2C)O[C@@]12CC[C@@](C)([C@H]1CC[C@](O)(CC)[C@H](C)O1)O2 (stereo partly drawn) [AM5, Sal-Propargylamine]	response characteristic of a cytosolic depletion of iron	stable	restricted to the lysosomal compartment	approximately 80%	presence of lipid peroxidation	significant increase in lysosomal ROS	increased	increased levels of iron-responsive element-binding protein 2 (IRP2) and transferrin receptor (TfR) along with reduced levels of ferritin	diminution of endogenous levels of the ROS scavenger glutathione (GSH)
CC[C@@H](C(=O)[C@@H](C)[C@@H](O)[C@H](C)[C@@H]1O[C@@H]([C@@H](CC)C(=O)O)CC[C@@H]1C)[C@H]1O[C@]2(C=C[C@@H](O)[C@]3(CC[C@@](C)([C@H]4CC[C@](O)(CC)[C@H](C)O4)O3)O2)[C@H](C)C[C@@H]1C [Sal, salinomycin, reference compound]	response characteristic of a cytosolic depletion of iron	formation of byproducts	restricted to the lysosomal compartment	approximately 80%	presence of lipid peroxidation	significant increase in lysosomal ROS	increased	increased levels of iron-responsive element-binding protein 2 (IRP2) and transferrin receptor (TfR) along with reduced levels of ferritin	diminution of endogenous levels of the ROS scavenger glutathione (GSH)
